Laboratory results as given in BindingDB's records for doi:10.7270/Q2CV4KX9 (n/a, 1995).

assay: Binding affinity was measured by its ability to displace [3H]CCK-8S from CCK-B receptor in guinea pig brain

Compound | Ki [nM]
CC(C)CCN1C(=O)C(NC(=O)Nc2ccccc2)C(=O)N(c2ccccc2)c2ccc(Cl)cc21 (stereo not given) | 955
CC(C)CCN1C(=O)C(NC(=O)Nc2ccccc2)C(=O)N(c2ccccc2)c2cc(Cl)c(Cl)cc21 (stereo not given) | 1580
CC(C)CCN1C(=O)C(NC(=O)Nc2ccccc2)C(=O)N(c2ccccc2)c2ccc(F)cc21 (stereo not given) | < 1000
CC(C)CCN1C(=O)C(NC(=O)Nc2ccccc2)C(=O)N(c2ccccc2)c2cc(Cl)ccc21 (stereo not given) | 955
CC(C)CCN1C(=O)C(NC(=O)Nc2ccccc2)C(=O)N(c2ccccc2)c2cc(F)ccc21 (stereo not given) | 224
